Laboratory results as given in publication PMC9016803, “Mitochondria-targeted half-sandwich iridium(III)-Cp*-arylimidazophenanthroline complexes as antiproliferative and bioimaging agents against triple negative breast cancer cells MDA-MB-468” (RSC Advances, 2022).

Assays:
[1] = tested on: MDA-MB-468 cells; assay: Cell cycle analysis; assay type: cell-based; conditions: 5 μM
Procedure: The IrL1 complex exerted a G0/G1 cell cycle arrest at the highest tested concentration of 5 μM. The effects of various concentrations of IrL1 complex on the cell cycle of breast cancer cell line MDA-MB-468 cells were further explored by cell cycle analysis.

[2] = tested on: immortalized human keratinocyte cell line HaCaT; assay: MTT in vitro cytotoxicity assay, normal cells; assay type: cell-based; conditions: 48 h
Procedure: Consequently, the IrL1 complex doses of 1 μM, 3 μM and 5 μM were selected for further experimental analysis. Furthermore, the possible cytotoxic effects of IrL1 on normal cell line were also examined on the immortalized human keratinocyte cell line HaCaT.
Cytotoxicity study of all the synthesized compounds against triple negative breast cancer cells MDA-MB-468 and immortalized human keratinocyte cell line HaCaT were done with a drug incubation period of 48 h by following standard procedure that were mentioned in ESI. ^† Preliminary studies were done to understand the mode of action of the complex to induce cytotoxicity using flow cytometric methods. […]
(§1) In vitro cytotoxicity study was measured by standard MTT assay protocol.1 First the prepared complexes (IrL1-IrL5) were dissolved in 0.1% DMSO followed by dilution with DMEM medium. […] Then the resultant suspension was kept on micro vibrator for 10 min and the absorbance was recorded at λ = 570 nm in ELISA plate reader. […] The data were represented as the growth inhibition percentage i.e. % growth inhibition = 100 − [(AD × 100)/AB], where AD, measured absorbance in wells which contain samples and AB, measured absorbance for blank wells (cells with a medium and a vehicle). […]

[3] = Stability study by time-dependent UV-vis spectroscopy; assay type: physicochemical
Procedure: The stability studies of complex IrL1 were conducted in […] different solvents, i.e. aqueous DMSO (H2O : DMSO = 9 : 1) and aqueous GSH medium (Fig. 3) respectively in presence or absence of different concentrations of NaCl. It is essential that the complexes remain stable in the biological environments of cells, and thus the stability studies were performed. […] It has been reported that many cancer cells become resistant to various drugs by increasing their cellular glutathione level.[28]
For doing the cell culture the cells were retained in DMEM media (Gibco), added with 10% fetal bovine serum (Himedia, India), 1% penicillin and streptomycin and 1% of Glutmax (Gibco, Thermo Scientific, USA) at 37°C in 5% CO2. […]
as §1

[4] = tested on: MDA-MB-468 cells; assay: Annexin V-FITC/PI apoptosis assay; assay type: cell-based; conditions: 3 μM
[5] = tested on: MDA-MB-468 cells; assay: Mitochondrial membrane potential, JC-1 staining, flow cytometry; assay type: cell-based
Procedure: The cells treated with the mitochondrial uncoupler CCCP (carbonyl cyanide m-chlorophenylhydrazone), which mediates the dissipation of mitochondrial membrane potential, served as positive control for the detection of mitochondrial dysfunction. […] Unstained control represented in Fig. 10A has been used for gating purposes. […]

[6] = tested on: CT-DNA; assay: DNA binding by UV-visible absorption titration; design: species or system calf; conditions: for Change in absorbance: on addition of CT-DNA
Procedure: To design effective chemotherapeutic drugs, it is essential to explore the interactions of metal complexes with DNA. […] DNA base pairs such as purine (adenine and guanine) and pyrimidine (cytosine and thymine) analogues are responsible for electronic transitions. Upon the addition of CT-DNA in increasing concentration from 5 μM to 60 μM, we observed a hyperchromic shift in π–π* region and hypochromic shift at the MLCT region resulting in the appearance of an isosbestic point, which indicates the prevalence of […] interaction of the complex with DNA together with the intercalative mode of interaction (Fig. 6).
Electronic absorption spectroscopy was used to study the binding capacity of the complexes with calf-thymus DNA (Ct-DNA) and competitive binding assay as studied using ethidium bromide (EtBr) as quencher by fluorescence spectroscopy.
DNA binding assay was carried out by using complexes IrL5 in Tris-HCl buffer (5 mM Tris-HCl in water, pH 7.4) in aqueous medium. The concentration of Ct-DNA was calculated from its absorbance intensity at 260 nm and its known molar absorption coefficient value of 6600 M-1cm-1. Equal amount of DNA was added in both the sample and reference in cuvettes.
Titration was carried out by increasing concentration of CT-DNA. On the eve of each measurement, sample was equilibrated with CT-DNA for about 5 min and then absorbance of the complex was measured. The intrinsic DNA binding constant (K b) was calculated using the […]
[DNA] = [DNA] + 1 L L (i) […]
Where [DNA] is the concentration of DNA in the base pairs, εa is the apparent extinction coefficient observed for the complex, εf corresponds to the extinction coefficient of the complex in its free form, and εb refers to the extinction coefficient of the complex when fully bound to DNA. The resultant data were plotted using Origin Lab, version 8.5 to obtain the [DNA]/(ε a-εf) vs. [DNA] linear plot. The ratio of the slope to intercept from the linear fit gave the values of the intrinsic binding constants ( Kb).
UV and Fluorescence study […]
φ = φR × I × OD × η ⋯⋯⋯(ii)

Question: Which G0/G1 phase cells [1] does the source give for “[Iridium(III)-Cp*-2-(naphthalen-1-yl)-1H-imidazo[4,5-f][1,10]phenanthroline]PF6 [IrL1]” here?
Answer: Its G0/G1 phase cells is 53.32%.

Question: What about the G2/M phase cells [1] of the same substance?
Answer: The G2/M phase cells was about 18.37%.

Question: What about the S phase cells [1] of the same substance?
Answer: Its S phase cells is about 28.32%.

Question: What about the IC50 [2] of the same substance?
Answer: Its IC50 is 11.4 µM.

Question: What about the decrease in absorbance ([3]; aqueous DMSO (H2O : DMSO = 9 : 1), after 24 h) of the same substance?
Answer: Its decrease in absorbance is 15–30%.

Question: What about the “effect of GSH on stability” value ([3]; excess (10 eq.) glutathione, time-dependent UV spectroscopy) of the same substance?
Answer: Its value is “GSH didn't have much impact on the stability”.

Question: What about the early apoptotic cells [4] of the same substance?
Answer: Its early apoptotic cells is about 34.89%.

Question: And the viable cell population [4]?
Answer: Its viable cell population is about 51.37%.

Question: What about the “cells with damaged mitochondria (JC-1 monomers)” value (“cells with damaged mitochondria” for short) ([5]; 1 μM) of the same substance?
Answer: The value was 27.86%.

Question: What about the “cells with damaged mitochondria” value ([5]; 3 μM) of the same substance?
Answer: The value was about 47.52%.

Question: What about the “cells with damaged mitochondria” value ([5]; 5 μM) of the same substance?
Answer: The value was 67.02%.

Question: What about the “Δε (% change in hypochromism or hyperchromism)” value ([6]; λmax 250 nm, hyperchromism) of the same substance?
Answer: The value was 60%.

Question: What about the Change in absorbance ([6]; λmax 250 nm) of the same substance?
Answer: The Change in absorbance was “Hyperchromism”.

Question: What about the “Δε (% change in hypochromism or hyperchromism)” value ([6]; λmax 305 nm, hypochromism) of the same substance?
Answer: Its value is 25%.

Question: And the Change in absorbance ([6]; λmax 305 nm)?
Answer: The Change in absorbance was “Hypochromism”.
